In US4526888A, “Nephrotoxicity inhibitors for aminoglycoside antibiotics” (Bristol-Myers Company, priority 1983, dated 1985):
Several values for one entry are separate records, joined by “and”; a condition that tells them apart may be missing. Equal entries are not always repeated. Where two headings read alike, the source gives them in different places.

What was measured:
[1] = tested on: rats; settings: rat, in vivo
From the text: (§1) A fourteen (14) day subacute nephrotoxicity model in rats was utilized to test the in vivo efficacy of aminoglycoside-transport inhibitor combinations. […] Though blood urea nitrogen (BUN) was monitored as a clinical parameter of renal function, the primary evaluation of nephrotoxicity in this model involves histopathologic examination of renal tissue, which is a more accurate and sensitive method for assessing nephrotoxicity [Hottendorf et al., Antimicrob.
(§2) Male Sprague-Dawley rats [Charles River Breeding Laboratories, Inc., (CRL: COBS CD (SD) BR)] approximately 6 weeks old and weighing 140-160 gms upon arrival were used. They were conditioned for at least 5 days prior to the start of the study. Only animals found to be clinically healthy were selected. Rats were identified individually by number on the tail with black marking pens. During the study the rats were housed individually in cages of the appropriate size and type in a temperature-controlled room. Rodent Laboratory Chow (pellet, Purina Ralston Company) and water was offered ad libitum.
(§3) The aminoglycoside and aminoglycoside-inhibitor mixtures were administered subcutaneously twice daily for 14 days.
(§4) All rats were euthanized by an overdose of sodium pentobarbital on study Day 15.
(§5) The kidneys were removed and examined grossly. A longitudinal section of the left kidney and a cross section of the right kidney from each rat were preserved in 10% neutral buffered Formalin for histopathological evaluation. Tissue sections (6 μm each) were stained with hematoxylin and eosin, and the resulting tissue slides were randomized, masked, and examined by a single pathologist without knowledge of the animal's treatment.
(§6) Lesions encountered in the renal cortex included tubular vacuolar or granular degeneration, peritubular inflammation, tubular necrosis, tubular dilatation, tubular basophilia, and interstitial fibrosis. The extent and distribution of each of these lesions in both kidneys of every rat were scored as follows: 0, absence of lesion; 1, lesion represented in fewer than 10% of the nephrons; 2, lesion represented in 10 to 50% of the nephrons; 3, lesion represented in 50 to 90% of the nephrons; and 4, lesion represented in more than 90% of the nephrons. Since these lesions are all interrelated and represent various stages of proximal tubular damage, the lesion scores were summed to produce a single nephrotoxicity response for each animal, with a possible severity range of 0 to 24.
(§7) Nephrotoxicity was monitored by blood urea nitrogen (BUN) analysis and histopathologic examination of renal tissue.
(§8) Aminoglycosides and aminoglycoside-inhibitor mixtures were administered subcutaneously twice daily for fourteen days.
(§9) All rats were euthanized by an overdose of sodium pentobarbital on study Day 15. The kidneys were removed, examined grossly and placed in 10% neutral buffered formalin for subsequent histopathologic evaluation.

[2] = tested on: rats; experiment: Fourteen day subacute nephrotoxicity model in rats, histopathologic examination of renal tissue; settings: for in vivo nephroprotective activity (in words): summary of Table III
From the text: as §1, §2, §3, §4, §5, §6, §7, §8, §9

[3] = tested on: renal brush border membranes of proximal tubule cells; experiment: In vitro gentamicin transport inhibition, isolated renal brush border membrane vesicles; type: biochemical; settings: 3H-gentamicin transport, rat renal brush border membrane vesicles, 30 second incubation; multiple of aminoglycoside molar concentration
From the text: An in vitro screening program was established to study the selective inhibition of aminoglycoside transport across renal brush border membranes of proximal tubule cells. The screening tests employed isolated, purified brush border membrane as described by Kinsella et al., Biochem. Biophys. Acta., 552: 468-477 (1979) and Williams et al., Tox. Applied Pharmacol., 61: 243-251 (1981), comprising isolation and purification of rat renal cortical membranes via differential centrifugation, cationic precipitation and discontinuous sucrose gradient techniques. […] The transport was quantified by liquid scintillation techniques as described by Kinsella et al., J. Pharmacol. Exp. Ther., 209: 443-450 (1979). Gentamicin transport was characterized, FIG. 1, as to time and concentration dependency, and as to specificity. Gentamicin transport was then measured at a fixed concentration of gentamicin (0.5 mM) in the presence of prospective inhibitors at 5X molar concentration. […] The reaction media was then vacuum filtered on 0.3 micron Millipore filters. The filters were washed twice with 2 ml of the buffer and removed and counted using liquid scintillation spectroscopy techniques. […] The inhibitors were solubilized in the above-described buffer.

[4] = multiple of AG dose: Molar 0.1 (Mg 0.7 Lysine20, 2 Asparagine90)
[5] = multiple of AG dose: Molar 0.3 (Mg 15 Lysine10, 10 Aspartic acid90, 6 Asparagine90)
[6] = multiple of AG dose: Molar 1 (Mg 15 Glutamic acid60, 20 Asparagine90)

Compound: NCC[C@H](O)C(=O)N[C@@H]1C[C@H](N)[C@@H](O[C@H]2O[C@H](CN)[C@@H](O)[C@H](O)[C@H]2O)[C@H](O)[C@H]1O[C@H]1O[C@H](CO)[C@@H](O)[C@H](N)[C@H]1O.O=S(=O)(O)O.O=S(=O)(O)O [AMIKACIN, amikacin sulfate]
- nephrotoxicity in this test (conclusion in words) [1]: demonstrates the nephrotoxicity of amikacin

Compound: O=S(=O)([O-])CO.[Na+] [Sodium formaldehyde bisulfite]
- Nephroprotective Activity ([2]; multiple of AG dose: Molar 136, Mg 40): + (less than 50% reduction)
- I50 (molar multiples producing 50% transport inhibition) [3]: 10 X

Compound: NCCCNCCCCNCCCN [Spermine]
- I50 (molar multiples producing 50% transport inhibition) [3]: 3 X

Compound: Poly-l-asparagine90
- Nephroprotective Activity [2, 4]: + (less than 50% reduction)
- Nephroprotective Activity ([2]; multiple of AG dose: Molar 0.15, Mg 3): + (less than 50% reduction)
- Nephroprotective Activity [2, 5]: + (less than 50% reduction)
- Nephroprotective Activity ([2]; multiple of AG dose: Molar 0.5, Mg 10): +++ (reduction 100%)
- Nephroprotective Activity [2, 6]: +++ (reduction 100%)
- in vivo nephroprotective activity (in words) [2]: greatest degree of in vivo nephroprotective activity
- I50 (molar multiples producing 50% transport inhibition) [3]: 0.1 X

Compound: Poly-l-aspartic Acid90
- Nephroprotective Activity [2, 5]: +++ (reduction 100%)
- in vivo nephroprotective activity (in words) [2]: greatest degree of in vivo nephroprotective activity
- I50 (molar multiples producing 50% transport inhibition) [3]: < 0.1 X

Compound: Poly-l-glutamic Acid60
- Nephroprotective Activity [2, 6]: 0
- I50 (molar multiples producing 50% transport inhibition) [3]: < 0.1 X

Compound: Poly-l-lysine10
- Nephroprotective Activity [2, 5]: 0
- I50 (molar multiples producing 50% transport inhibition) [3]: 1 X

Compound: Tetralysine [Lysine4]
- Nephroprotective Activity ([2]; multiple of AG dose: Molar 16, Mg 25): 0
- I50 (molar multiples producing 50% transport inhibition) [3]: 10 X

Compound: gentamicin sulfate [GENTM]
- Histopath. Score (TOTAL), group value below animal scores ([2]; Example II Group II, gentamicin 10 mg/kg sc twice daily 14 days): 4.2
- Histopath. Score (TOTAL), individual animal ([2]; Example II Group II, gentamicin 10 mg/kg sc twice daily 14 days, Day 15, range 0 to 24): 1 and 5 and 6 and 4
- Histopath. Score (TOTAL), group value below animal scores ([2]; Example II Group III, gentamicin 20 mg/kg): 4.8
- Histopath. Score (TOTAL), individual animal ([2]; Example II Group III, gentamicin 20 mg/kg sc twice daily 14 days): 4 and 3 and 5 and 8
- Histopath. Score (TOTAL), group value below rat scores ([2]; Example III Group II, gentamicin 20 mg/kg): 8.8
- Histopath. Score (TOTAL), individual rat ([2]; Example III Group II, gentamicin 20 mg/kg sc twice daily fourteen days): 8 and 9 and 10
- nephrotoxicity in this test (conclusion in words) ([2]; aminoglycoside alone groups): demonstrates the nephrotoxicity of gentamicin
- dose necessary to elicit a significant and reproducible nephrotoxic response ([2]; bid, 14 days, rats): 20 mg/kg/day

Compound: polylysine20
- Nephroprotective Activity [2, 4]: + (less than 50% reduction)
- in vivo nephroprotective activity (in words) [2]: showed any nephroprotective activity
- I50 (molar multiples producing 50% transport inhibition) [3]: 0.05 X
